Assays:
[1] = test system: Akt; experiment: Akt phosphorylation, Western blot; assay type: cell-based; conditions: 3T3-L1 adipocytes, 20 or 40 μM, 15 min
Protocol: (§1) (A) Glucose transport was measured by determining [^3H]-2-deoxyglucose uptake stimulated by either insulin or α-PGG in 3T3-L1 cells in the presence or absence of HNMPA-(AM)3, an inhibitor of IR tyrosine kinase activity (24); wortmannin, an inhibitor of PI 3-kinase (25), or cytochalasin B, an inhibitor of GLUT4 (26), (n=4, mean±SD). (B) Cells were induced by 20 or 40 μM α-PGG or 100 nM insulin for 15 min. Cell lysates were separated by PAGE and analyzed for phosphorylation of IR (in CHO-IR cells) or Akt (in adipocytes) using antibodies specific to the target proteins. (C) Cells were treated with α-PGG and insulin in a fashion similar to (B) and assayed for their respective PI-3 kinase activity with a radioactive TLC method (27). (D) In similar experiments, intact cells were analyzed by confocal microscopy for translocation of GLUT4 using anti-GLUT4 antibodies.
(§2) Protein phosphorylation/activation and GLUT4 translocation. To investigate signal transduction induced by α-PGG, proteins from 3T3-L1 adipocytes or CHO-IR cells (23), which were treated with α-PGG or insulin for 15 min, were isolated, separated by PAGE, blotted on nylon membranes, and analyzed by Western blotting with antibodies against either IR or Akt. […]

[2] = test system: IR; experiment: IR phosphorylation, Western blot; assay type: cell-based, Chinese hamster; conditions: CHO-IR cells, 20 or 40 μM, 15 min
Protocol: as §1, §2

[3] = test system: 3T3-L1 adipocytes; experiment: Glucose uptake assay in 3T3-L1 adipocytes; assay type: cell-based
Protocol: Chemical synthesis yields both the α- and β-anomers of PGG. (B) Glucose transport stimulatory activity (13, 14) of PGG was assessed by incubating adipocytes in 6-well plates with insulin or PGG for 15 min followed by the addition of [^3H]-2-deoxy-D-glucose for 10 min before quantifying uptake (13, n=3, mean±SD, Two way-ANOVA, * P<0.05; ** P<0.01). α-PGG (●); β-PGG (□); insulin (∘). (C) Glucose transport induced by insulin in the presence of α-PGG. One […] of insulin was added to adipocytes in the presence of increasing amounts of α-PGG. After induction, radioactive glucose was added, and the glucose taken up by the cells was counted.
Reagents, compound synthesis, and glucose uptake assay. Bovine insulin was purchased from Sigma. PGG, in an approximate 1:1 mixture of α- and β-PGG, was synthesized from glucose in the non-radioactive form as described (22). The identity of the compounds was confirmed by MS and NMR. The compounds were dissolved in double distilled water (ddH2O), filter sterilized, and stored as a 10 mM aqueous stock solution at −20° C. The stock solutions were diluted to final concentrations with sterile ddH2O. Glucose uptake assays in 3T3-L1 adipocytes induced by PGG were performed as described (13).

[4] = test system: PI-3 kinase; experiment: PI-3 kinase activity, radioactive TLC method; assay type: cell-based; conditions: CHO-IR cells
Protocol: as §1, §2

[5] = target: insulin (Bos taurus, UniProt P01317); experiment: Binding of α-PGG to insulin
Sequence of insulin (P01317 25-54 limits assumed): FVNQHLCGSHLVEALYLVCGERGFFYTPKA

PI-3 kinase activity [4]: activates PI-3 kinase
binding to insulin [5]: did not bind to insulin
SMILES: O=C(OC[C@H]1O[C@H](OC(=O)c2cc(O)c(O)c(O)c2)[C@H](OC(=O)c2cc(O)c(O)c(O)c2)[C@@H](OC(=O)c2cc(O)c(O)c(O)c2)[C@@H]1OC(=O)c1cc(O)c(O)c(O)c1)c1cc(O)c(O)c(O)c1 [α-PGG, alpha 1,2,3,4,6-penta-O-galloyl-D-Glucopyranose]
Akt phosphorylation [1]: phosphorylated in 3T3-L1 adipocytes in a dose-dependent fashion
phosphorylation of the IR [2]: induces the phosphorylation of the IR
induction of glucose transport ([3]; 3T3-L1 adipocytes, [3H]-2-deoxy-D-glucose uptake, 15 min incubation): induced glucose transport in adipocytes in a dose-dependent manner
glucose transport activity, more active than β-PGG ([3]; 15-30 μM concentration range, P<0.05 at 15 μM, P<0.01 at 30 μM): 10-20%
EC50 ([3]; Mus musculus, 3T3-L1, estimated, printed 13 μM±2 μM, read-out: EC50 for glucose transport activity): 13 µM
glucose transport induced by insulin on addition of α-PGG ([3]; insulin plus increasing amounts of α-PGG): reduced the glucose transport activity induced by insulin towards that of α-PGG
